In PubChem BioAssay (NCI):
Values joined by “and” are separate entries in the source; they are usually repeats but may differ in a detail not shown here. Identical values can stand only once.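 Five concentrations, 48 hours, 96-well plates. At the GI50, growth is halved. TGI denotes the concentration required for complete inhibition of growth.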

Experiments:
Test in all cases: NCI-60 cell line screen, 48 h
MDA-MB-435 = test system: MDA-MB-435
HCC-2998 colon = test system: HCC-2998 colon
SN12C renal = test system: SN12C renal
NCI-H23 lung = test system: NCI-H23 lung
MALME-3M melanoma = test system: MALME-3M melanoma
DU-145 prostate = test system: DU-145 prostate
K-562 leukemia = test system: K-562 leukemia
BT-549 breast = test system: BT-549 breast
A549 NSCLC = test system: A549 NSCLC
KM12 colon = test system: KM12 colon

Compound | GI50 (MDA-MB-435) | TGI (MDA-MB-435) | GI50 (HCC-2998 colon) | TGI (HCC-2998 colon) | GI50 (SN12C renal) | TGI (SN12C renal) | GI50 (NCI-H23 lung) | TGI (NCI-H23 lung) | GI50 (MALME-3M melanoma) | TGI (MALME-3M melanoma) | GI50 (DU-145 prostate) | TGI (DU-145 prostate) | GI50 (K-562 leukemia) | TGI (K-562 leukemia) | GI50 (BT-549 breast) | TGI (BT-549 breast) | GI50 (A549 NSCLC) | TGI (A549 NSCLC) | GI50 (KM12 colon) | TGI (KM12 colon)
O=[N+]([O-])/C=C/c1ccc(Cl)cc1[N+](=O)[O-] | 3620 nM | 16.1 µM | 1.85 µM | 3.41 µM | 3.08 µM | 20.9 µM | 2860 nM | 10.6 µM | 4150 nM | 16.7 µM | 2.52 µM | 5.49 µM | 3080 nM | 24.1 µM | 3.47 µM | 10.2 µM | 6720 nM | 30.3 µM | 3.09 µM | > 100 µM
COc1cc2ncnc(Oc3cccc(NC(=O)Nc4cc(C(C)(C)C(F)(F)F)on4)c3)c2cc1OC | 335 nM and 484 nM | 5.74 µM and > 10 µM | 2.29 µM and 3.28 µM | 14.9 µM and > 10 µM | 1.61 µM and 1.69 µM | 11.9 µM and > 10 µM | 1280 nM and 1430 nM | 11.7 µM and > 10 µM | 64.5 nM and 85.1 nM | 0.929 µM and 1.17 µM | 3.31 µM and 3.84 µM | > 58.5 µM | 15.3 nM and 14.6 nM | 25.9 µM and > 10 µM | 2.4 µM and 3.89 µM | 8.78 µM and > 10 µM | 1900 nM and 2740 nM | 40.8 µM and > 10 µM | 3.4 µM and 5.28 µM | 14 µM and > 10 µM
CCOC(=O)[C@@H]1CSC(CC)=C(C(=O)O)N1 | > 100000 nM | > 100 µM | > 100 µM | > 100 µM | > 100 µM | > 100 µM | > 100000 nM | > 100 µM | > 100000 nM | > 100 µM | > 100 µM | > 100 µM | > 100000 nM | > 100 µM | > 100 µM | > 100 µM | > 100000 nM | > 100 µM | > 100 µM | > 100 µM
C#C[C@]1(O)CC[C@H]2[C@@H]3CC=C4c5nc(N)sc5CC[C@]4(C)[C@H]3CC[C@@]21C | 2220 nM | 7.2 µM | 4.21 µM | 19.2 µM | 10.1 µM | 30.6 µM | 4380 nM | 24.3 µM | 2830 nM | 8.98 µM | 5.19 µM | 20.8 µM | 2630 nM | 74.5 µM | 1.97 µM | 6.26 µM | 4150 nM | 24.8 µM | 3.49 µM | 16.1 µM
CC1(C)N=C(N)N=C(N)N1c1cccc(CCc2ccccc2)c1 | 154 nM | 35.4 µM | 1.69 µM | > 38.7 µM | 0.456 µM | > 100 µM | 551 nM | > 100 µM | 1040 nM | > 68.8 µM | 0.552 µM | > 100 µM | 299 nM | > 100 µM | 0.577 µM | > 46.7 µM | 125 nM | > 100 µM | 0.456 µM | 14.6 µM
CSC1=Nc2c(c(C)c(-c3ccccc3)n2COC(CO)CO)C2=NC(=O)CC(C)N12 (stereo not given) | > 100000 nM | > 100 µM | > 100 µM | > 100 µM | > 100 µM | > 100 µM | > 100000 nM | > 100 µM | > 100000 nM | > 100 µM | > 100 µM | > 100 µM | > 100000 nM | > 100 µM | > 100 µM | > 100 µM | > 100000 nM | > 100 µM | > 100 µM | > 100 µM
Cc1cc(NN=C(c2ccc(O)cc2)c2ccc(O)cc2)c([N+](=O)[O-])cc1[N+](=O)[O-] | 3460 nM | 14.4 µM | 8.24 µM | 28.7 µM | 6.79 µM | 24.7 µM | 3800 nM | 47.3 µM | 9310 nM | 23.2 µM | 9.83 µM | 29.5 µM | 92700 nM | > 100 µM | 11.4 µM | 35.5 µM | 2470 nM | > 100 µM | 4.6 µM | 24 µM
C=CC(=O)Nc1cc2c(Nc3ccc(F)c(Cl)c3)ncnc2cc1C#CC(C)(C)N1CCN(C)CC1 | 1500 nM | 3.9 µM | 1.83 µM | 4.25 µM | 0.572 µM | 2.51 µM | 1720 nM | 3.78 µM | 1490 nM | 5.05 µM | 1.11 µM | 4.86 µM | 1050 nM | 6.59 µM | 1.6 µM | 3.47 µM | 2640 nM | – | 2.36 µM | 5.75 µM
COc1ccccc1C(=O)N(Cc1ccccc1)c1ccc(Cl)c(C(=O)OC(C)C)c1 | – | > 100 µM | – | > 100 µM | – | > 100 µM | – | > 82.8 µM | – | 85.9 µM | – | > 100 µM | – | > 100 µM | – | > 100 µM | – | > 100 µM | – | > 81 µM
O=c1[nH]cnc2n[nH]nc12 | 448 nM | > 100 µM | – | > 74.7 µM | – | > 100 µM | – | > 100 µM | – | 46.4 µM | 2.89 µM | > 100 µM | – | > 100 µM | 2.65 µM | > 100 µM | – | > 100 µM | – | > 100 µM
N#[N+]c1ccc(Nc2ccccc2)cc1 | 1.83 µg/mL | 17.7 µg/mL | > 50 µg/mL | > 50 µg/mL | > 50 µg/mL | > 50 µg/mL | > 50 µg/mL | > 50 µg/mL | > 50 µg/mL | > 50 µg/mL | > 50 µg/mL | > 50 µg/mL | > 50 µg/mL | > 50 µg/mL | > 50 µg/mL | > 50 µg/mL | > 50 µg/mL | > 50 µg/mL | 3.11 µg/mL | > 50 µg/mL
CCOC(=O)c1c(NC(=O)c2ccc(Cl)cc2)sc2c(CN(C)C)c(O)ccc12 | 6620 nM | 29.9 µM | 1.83 µM | 3.84 µM | 14.6 µM | > 100 µM | 14600 nM | 47.6 µM | 1850 nM | 3.86 µM | 13.2 µM | 47.9 µM | 1620 nM | 5.07 µM | 13.4 µM | > 100 µM | 8070 nM | 36.2 µM | 4.82 µM | > 100 µM
CC(=O)OCC1OC(n2c3c(cc(C#N)c2=S)CCCC3)C(OC(C)=O)C(OC(C)=O)C1OC(C)=O (stereo not given) | – | > 100 µM | 41.3 µM and > 100 µM | > 100 µM | – | > 100 µM | – | > 100 µM | – | > 100 µM | – | > 100 µM | 24100 nM and > 100000 nM | 68 µM and > 100 µM | – | > 100 µM | – | > 100 µM | 31.7 µM and > 100 µM | > 100 µM
